For assay [1], the system named is Langendorff perfused rat heart. As to the kind of experiment: Antiischemic activity, Langendorff perfused rat heart, brief (16 min.) ischemic insult, compound given at reperfusion (Table 3). The settings on record: 0.001 ug/ml at reperfusion. As for the experimental part: Table 3: Compound administered at the time of reperfusion at a dose of 0.001 ug/ml on brief period (16 min.) of ischemic insult.
(§1) The rats were killed by decapitation, heart were rapidly excised and placed in ice-cold HEPES tyrode buffer. Then isolated hearts were perfused retrogradely through coronary arteries using the Langendorff technique. The perfusion buffer consisted (in mM) NaCl 137, KCl 5.4, CaCl2 1.8, MgCl2 1.0, glucose 11.2 and HEPES 3.0. The buffer (pH 7.4) was continuously gassed with oxygen and maintained at 37°C. Coronary flow rate was maintained at 10 ml/min. The heart contracted spontaneously.
(§2) The perfused heart was allowed to equilibrate for 30 min. before initiation of any insult protocol. The text compounds were given at the time of reperfusion. Some of the compounds were dissolved in ethanol. Final concentration of ethanol in the perfusion buffer was 0.0001% and had no effect of its own on the parameter used. • (a) For brief period of ischemic insult (Hideo et al.). Pathophysiology and pathogenesis of stunned myocardium. J. Clin. Invest., 79, 950-961, 1987). Ischemia was initiated by stopping the flow for 16 min. followed by 30 min. reperfusion period. The durations were decided on the initial pilot experiments leading to 50% recovery of function. • (b) For prolong period of ischemic insult (Becker, L.C. & Ambrosio, G. Myocardial consequences of reperfusion. Prog. Cardiovas. Dis., 30, 23-44, 1987). Ischemia was initiated by stopping the flow for […]. followed by 30 min. reperfusion.

Assay [2] has as its system cat. Put plainly: Effect on blood pressure and adrenaline vasopressor response in anaesthetized cat, i.v. (Table 2). Conditions: for inhibition at 2 µmol/kg / inhibition in vivo at 2 µmol/kg / inhibition at 10 µmol/kg / inhibition in vivo at 10 µmol/kg: Felis catus, iv; for inhibition at 2 µmol/kg / inhibition at 10 µmol/kg: read-out: Adrenaline vasopressure response % inhibition; for inhibition in vivo at 2 µmol/kg / inhibition in vivo at 10 µmol/kg: read-out: B.P. fall %. In kind it is in vivo. The method, then: • (a) Cats (2.6-4.0 kg) of either sex anaesthetized with pentobarbitone sodium (40 mg/kg i.v.) and showing basal mean arterial blood pressure below 150 mm (Hg) were categorised as normotensive and above 150 mm Hg as hypertensive. Arterial blood pressure (BP) was recorded from one of the carotid artery through a stathum P23 DC pressure transducer and 7P1 low level DC preamplifier on a Grass Model P7 Polygraph, Signals from 7P1 preamplifier were used to trigger 7P4 Tachograph preamplifier for recording the heart rate (HR). Right femoral vein and Trachea were cannulated for intravenous injections and artificial ventilation respectively. Control responses to intravenous injection of noradrenaline (2-4 ug); acetyl choline (1-2 ug); histamine ([…]) and isoprenaline (1-2 ug) were taken before and after the administration of test doses of each compounds.

Assay [3] deals with cat. As to the kind of experiment: Comparative antihypertensive effect with clinically used antihypertensive drugs in cat. In kind it is in vivo. The settings on record: 2 uMol/kg i.v.
In assay [4] the test system is Langendorff perfused rat heart preparation. As to the kind of experiment: Cardioprotective activity, Langendorff perfused rat heart, prolonged ischemic insult, compound given at reperfusion. Conditions: 10^-6M, ischemic insult 45 min. As for the experimental part: Further, in Langendorff perfused rat heart preparation subjected to even upto 90 min. global ischemia, the compound at 0.001 ug/ml conc. given at the time of reperfusion revived normal rhythmic contraction started within 2 min. (Table 1) and incidence of reperfusion induced arrhythmia were abolished. Table 1: Compound administered at the time of reperfusion at the dose of 0.001 ug/ml on prolong period (90 min.) of ischemic insult.
as §1, §2

As for `O=C1CCCCN1CCCN1CCN(c2ccccn2)CC1` [2-Pyridyl, n=2, 1-[4-(2-pyridyl)piperazin-1-yl]-3-[2-oxopiperidin-1-yl] propane], in assay [1], the Onset was determined as 2.0 min, the “Percentage recovery 15 min.” value was 47.60 Percentage and the “Percentage recovery 30 min.” value is recorded as 71.40 Percentage. Also, in assay [2] (dose 2.0 umol/kg i.v.), the inhibition at 2 µmol/kg is 28%, the inhibition in vivo at 2 µmol/kg worked out at 34% and the Dur. stood at 53 min. Also, in assay [2] (dose 10.0 umol/kg i.v.), the inhibition at 10 µmol/kg was -20 to 0%, the inhibition in vivo at 10 µmol/kg was found to be 42% and the Dur. is more than 71 min.
`CCc1ccccc1N1CCN(CCCN2CCCC2=O)CC1` [C6H4-2-C2H5, n=1, 1-[4-(2-ethylphenyl)piperazin-1-yl]-3-[2-oxopyrrolidin-1-yl] propane]: the Onset in assay [1] came out at 3.0 min. In assay [2] (dose 2.0 umol/kg i.v.), the inhibition at 2 µmol/kg is -20 to 0%, the inhibition in vivo at 2 µmol/kg worked out at 13% and the Dur. is 10 min. In assay [2] (dose 10.0 umol/kg i.v.), the inhibition in vivo at 10 µmol/kg was determined as 62% and the Dur. stood at 10 min.
Take `O=C1CCCCN1CCCN1CCN(c2cccc(C(F)(F)F)c2)CC1` [C6H4-3-CF3, n=2, 1-[4-(3-trifluoromethylphenyl)piperazin-1-yl]-3-[2-oxopiperidin-1-yl]propane]: the inhibition at 2 µmol/kg in assay [2] (dose 2.0 umol/kg i.v.) is -20 to 0%. Further, in assay [2] (dose 10.0 umol/kg i.v.), the inhibition at 10 µmol/kg stood at 25%, the inhibition in vivo at 10 µmol/kg turned out to be 10% and the Dur. result is “Tr”.
`O=C1CCCN1CCCN1CCN(c2cccc(Cl)c2)CC1` [C6H4-3-Cl, n=1, 1-[4-(3-chlorophenyl)piperazin-1-yl]-3-[2-oxopyrrolidin-1-yl]propane] had an Onset in assay [1] of 1.0 min. For the same molecule, in assay [2] (dose 2.0 umol/kg i.v.), the inhibition at 2 µmol/kg was -20 to 0%, the inhibition in vivo at 2 µmol/kg worked out at 25% and the Dur. was 20 min. Also, the Dur. in assay [2] (dose 10.0 umol/kg i.v.) was more than 57 min.
Consider `O=C1CCCCN1CCCN1CCN(c2cccc(Cl)c2)CC1` [C6H4-3-Cl, n=2, 1-[4-(3-chlorophenyl)piperazin-1-yl]-3-[2-oxopiperidin-1-yl] propane], for which, in assay [1], the Onset worked out at 3.0 min, the “Percentage recovery 15 min.” value is recorded as 31.50 Percentage and the “Percentage recovery 30 min.” value worked out at 39.40 Percentage. In assay [2] (dose 2.0 umol/kg i.v.), the inhibition at 2 µmol/kg was determined as 33%, the inhibition in vivo at 2 µmol/kg came out at 27% and the Dur. was determined as 9 min. Also, in assay [2] (dose 10.0 umol/kg i.v.), the inhibition at 10 µmol/kg was 10%, the inhibition in vivo at 10 µmol/kg came out at 44% and the Dur. came to 62 min.
`O=C1CCCN1CCCN1CCN(c2cccc(F)c2)CC1` [C6H4-3-F, n=1, 1-[4-(3-fluorophenyl)piperazin-1-yl]-3-[2-oxopyrrolidin-1-yl]propane]: in assay [1], the Onset came out at 2.0 min. Further, in assay [2] (dose 2.0 umol/kg i.v.), the inhibition at 2 µmol/kg came to 80%, the inhibition in vivo at 2 µmol/kg was found to be 18% and the Dur. was 3 min. Further, in assay [2] (dose 10.0 umol/kg i.v.), the inhibition at 10 µmol/kg is more than 100%, the inhibition in vivo at 10 µmol/kg was 32% and the Dur. worked out at 30 min.
In assay [1], `CCc1ccc(N2CCN(CCCN3CCCC3=O)CC2)cc1` [C6H4-4-C2H5, n=1, 1-[4-(4-ethylphenyl)piperazin-1-yl]-3-[2-oxopyrrolidin-1-yl]propane] had an Onset of 2.0 min. Also, in assay [2] (dose 2.0 umol/kg i.v.), the inhibition in vivo at 2 µmol/kg came out at 9% and the Dur. entry was “Tr”. In assay [2] (dose 10.0 umol/kg i.v.), the inhibition in vivo at 10 µmol/kg is 20% and the Dur. turned out to be 14 min.
On to `O=C1CCCN1CCCN1CCN(c2ccc(Cl)cc2)CC1` [C6H4-4-Cl, n=1, 1-[4-(4-chlorophenyl)piperazin-1-yl]-3-[2-oxopyrrolidin-1-yl]propane], for which, in assay [1], the Onset came to 1.0 min.
As for `O=C1CCCCN1CCCN1CCN(c2ccc(Cl)cc2)CC1` [C6H4-4-Cl, n=2, 1-[4-(4-chlorophenyl)piperazin-1-yl]-3-[2-oxopiperidin-1-yl] propane], in assay [2] (dose 2.0 umol/kg i.v.), the inhibition at 2 µmol/kg was found to be 20%, the inhibition in vivo at 2 µmol/kg stood at 24% and the Dur. was determined as 20 min. Besides, in assay [2] (dose 10.0 umol/kg i.v.), the inhibition at 10 µmol/kg is 25%, the inhibition in vivo at 10 µmol/kg worked out at 46% and the Dur. turned out to be 25 min.
As for `O=C1CCCCN1CCCN1CCN(c2ccc(F)cc2)CC1` [C6H4-4-F, n=2, 1-[4-(4-fluorophenyl)piperazin-1-yl]-3-[2-oxopiperidin-1-yl] propane], in assay [2] (dose 2.0 umol/kg i.v.), the inhibition at 2 µmol/kg was determined as 46%, the inhibition in vivo at 2 µmol/kg was found to be 23% and the Dur. came to 40 min. Besides, in assay [2] (dose 10.0 umol/kg i.v.), the inhibition at 10 µmol/kg was more than 100%, the inhibition in vivo at 10 µmol/kg was determined as 33% and the Dur. is more than 84 min.
In assay [3], `C[C@H](CS)C(=O)N1CCC[C@H]1C(=O)O` [Captopril, reference compound] came in with a B.P. fall of 14% and a Dur. of 28 min.
For the molecule `COC(=O)C1=C(C)NC(C)=C(C(=O)OC)C1c1ccccc1[N+](=O)[O-]` [Nifedipine, reference compound], the Onset in assay [4] was determined as 2.5 min.

The record behind these values is patent publication EP0911330B1, “1-(4-Arylpiperazine-1-y1)-3-(2-oxopyrrolidin/piperidin-1-y1) propanes as therapeutic agents for hypertension, ischemia, cardiovascular and other adrenergic receptors related disorders” (Council of Scientific & Industrial Research, priority 1997, dated 1999).
